Article PMC9034499, “RORγt agonist enhances anti-PD-1 therapy by promoting monocyte-derived dendritic cells through CXCL10 in cancers” (Journal of Experimental & Clinical Cancer Research : CR, 2022)

Tests used:
EL4 cells = assay: Direct toxicity on tumor cells (apoptosis, CCK-8); format: cell-based; details: even at higher concentrations of 8-074
Procedure: To exclude the direct cytotoxic killing effect of 8-074 on tumor cells, we conducted an apoptosis assay, a cell proliferation assay, and a cytotoxic toxicity assay on tumor cells upon 8-074 treatment.
Supplementary file 13046_2022_2289_MOESM2_ESM.pdf: Additional file 2: Fig. S2. Selectivity of RORγt agonists in vitro. (a) The activity of 8-074 in Gal4 reporter gene assays with RORα and RORβ. (RORα EC50 > 10 μM, RORβ EC50 > 10 μM). (b) Summary of bioactivity and selectivity profiles for 8-074 using multiple assays. (c) 8-074 treated Type 17 T cells secreted more Th17 signature cytokines. IL-17F and IL-22 levels secreted by Type 17 T cells during differentiation were assayed by ELISA (*P < 0.05, **P < 0.01). (d) CCK-8 assay was used to determine the cell viability of EL4 cells after treating them with different 8-074 concentrations. Representative data are shown from three independent experiments. […] Lymphoma EL4 cells were treated with various concentrations of 8-074 for 48 hours and analyzed by flow cytometry after Annexin V-FITC/PI staining. […] (h) The relative mRNA expression of Cd19 in B cells as determined by qPCR. […] (i) Relative mRNA expression of Il-1β levels in macrophages as determined by qPCR. ***P < 0.001. (j) Relative mRNA expression of Il-6 in macrophages as determined by qPCR. *P < 0.05. (k) Relative mRNA expression of Il-10 in macrophages as determined by qPCR. *P < 0.05. […]

[1] = system: Th17 cells (CD4+ T cells); assay: Murine Th17 differentiation, flow cytometry; format: cell-based, mouse; details: Th17, intracellular staining, same concentration
Procedure: CD4^+ CD25^−CD62L^high cells were purified from C57BL/6 splenocytes using an EasySep Mouse Naïve CD4^+ T cell isolation kit from STEMCELL Technologies (Vancouver, Canada), and they were differentiated into Th17 cells (TGF-β, 2 ng/ml; IL-6, 20 ng/ml; Anti-IFN-γ, 10 μg/ml; Anti-IL-4, 10 μg/ml, BioLegend, San Diego, CA) in the presence of plate-bound anti-CD3 (5 μg/ml, BioLegend, San Diego, CA) and anti-CD28 (2 μg/ml, BioLegend, San Diego, CA). The cells were harvested and processed for cytokine analysis at the RNA or protein level using real-time qPCR, flow cytometry, and ELISA on day five. Alternatively, splenocytes from OT-I mice were activated using OVA-derived peptides SIINFEKL (50 ng/ml, Sangon Biotech, Shanghai, China) and polarized to Tc17 cells using cytokine TGF-β (2 ng/ml, BioLegend, San Diego, CA) and IL-6 (20 ng/ml, BioLegend, San Diego, CA) for four or five days.
Cells were stained with fluorochrome-labeled anti-mouse Ab such as CD45, CD3, CD4, CD8, Foxp3, IFN-γ, IL-17A, CD11b, CD11c, pAKT, pSTAT3, CCR6, or MHCII. […] Cells were acquired using the FACS Aria II machine and analyzed using FlowJo software.

Th1 cells = assay: Th1 specificity, IFN-γ by flow cytometry; format: cell-based, C57BL/6 wild-type mice; details: compared with vehicle alone
Description: To confirm the in vitro specificity of 8-074, splenocytes from C57BL/6 wild-type mice were activated by plate-bound anti-CD3 and anti-CD28 antibodies and polarized with anti-IL-4 and IL-12 to obtain Th1 cells. IFN-γ, a signature cytokine of Th1 cells, was not affected by LYC-55716 or 8-074 compared with vehicle alone (Fig. 2j, Fig. S2g).

[2] = system: OVA-pulsed EL-4 lymphoma cells; assay: Ex vivo cytotoxicity assay of Tc17 cells; format: cell-based, mouse; details: Tc17 cells differentiated from OT-I T cells with 8-074
Procedure: The EL4 cells were pulsed using 50 ng/ml OVA257-264 peptide (SIINFEKL) (Sangon Biotech, Shanghai, China) for 2 h at 37 °C and then labeled with 0.25 μM or 2.5 μM of CFSE (carboxyfluorescein succinimidyl ester; Thermo Fisher Scientific, Massachusetts, America) for 10 min at 37 °C. CFSE^l°^w (SIINFEKL loaded target) and CFSE^high (irrelevant peptide control) EL4 cells were mixed at a 1:1 ratio and then co-cultured with Tc17 cells differentiated from OT-I T cells challenged (or not) with 8-074 at 30:1, 10:1, 3:1, and 1:1 effector to target cell ratios (E: T). The frequencies of the CFSE^l°^w and CFSE^high EL4 cells in the CFSE positive fraction were determined using flow cytometric analysis 18 h after incubation, and the percent of the specific killing was calculated. Specific killing (%) = [1 − (Sample ratio) / (Negative control ratio)] × 100; Sample ratio = [CFSE^l°^w(target)/CFSE^high(irrelevant)] value of each sample co-cultured with Tc17 cells; Negative control ratio = [CFSE^l°^w(target) / CFSE^high (irrelevant)] value of EL4 cells not cultured with Tc17 cells.

With CCS(=O)(=O)c1ccc(CC(=O)Nc2ccc(-c3ccc(CC(C)C)c(C#N)c3)c(C(F)(F)F)c2)cc1 [8-074] the “apoptosis in the tumor EL4 cells” value (EL4 cells) was “not observed”, the “cytotoxicity on tumor cells” value (EL4 cells) was “not observed” and the “percentage of CD4+ T cells that express IL-17A” value [1] was 24.0%. The “IFN-γ, signature cytokine of Th1 cells” value (Th1 cells) was “not affected” and the “cytotoxic killing activity of treated Tc17 cells” value [2] was “significant increase”.
